One data set concerns Bacillus cereus. The following applies: cited from earlier work.
Another data set relates to E. coli (ATCC 25922). Kind of data set: microdilution susceptibility test. Format: cell-based, Escherichia coli. The settings on record: N=3. (In general: In broth dilution the organism is exposed to a series of concentrations in liquid medium.)
The subject of data set [1] is MRSA (ATCC 43300). The following applies: cited from earlier work.
The next data set relates to CIMRSA 1. The data set can be described thus: microdilution susceptibility test. Format: cell-based, Staphylococcus aureus. The following applies: N=3.
The next data set concerns CIMRSA 5. The data set can be described thus: microdilution susceptibility test. Format: cell-based, Staphylococcus aureus. The following applies: N=3.
A further data set concerns CIMRSA 2. The data set can be described thus: microdilution susceptibility test. Format: cell-based, Staphylococcus aureus. The settings on record: N=3.
In data set [2] the test system is Staphylococcus saprophyticus. The following applies: cited from earlier work.
The next data set concerns CIMRSA 7. The data set can be described thus: microdilution susceptibility test. The settings on record: N=3. Format: cell-based, Staphylococcus aureus.
The test system of a further data set is Vero cells. The data set can be described thus: CTG Luminescent Cell Viability Assay. Format: cell-based, monkey. The following applies: N=3.
A further data set has as its system CIMRSA 3. Kind of data set: microdilution susceptibility test. The settings on record: N=3. Format: cell-based, Staphylococcus aureus.
A further data set has as its system Pseudomonas aeruginosa. The following applies: cited from earlier work.
Data set [3] relates to clinical isolates of MRSA. The settings on record: cited from earlier work.
Data set [4] deals with PBMC isolated from healthy volunteers. Kind of data set: cytotoxicity in peripheral blood mononuclear cells. Format: cell-based, human. The settings on record: N=3.
The test system of the next data set is CIMRSA 4. The data set can be described thus: microdilution susceptibility test. Format: cell-based, Staphylococcus aureus. The settings on record: N=3.
The test system of the next data set is CIMRSA 6. Kind of data set: microdilution susceptibility test. The following applies: N=3. Format: cell-based, Staphylococcus aureus.
The test system of data set [5] is MRSA (ATCC 43300). The data set can be described thus: microdilution susceptibility test. The settings on record: N=3. Format: cell-based, Staphylococcus aureus.
The target in the next data set is S. aureus DNA gyrase (Staphylococcus aureus, UniProt P0A0K8+P20831). Kind of data set: DNA gyrase supercoiling inhibition. Format: biochemical.
A further data set relates to Klebsiella pneumoniae. The settings on record: cited from earlier work.
Data set [6] in a line: CTG Luminescent Cell Viability Assay. The following applies: monkey, Vero cells. Format: cell-based, monkey.
For the next data set, the system named is eight MRSA strains. Kind of data set: antibacterial activity against eight MRSA strains. Format: cell-based, Staphylococcus aureus. The following applies: 6 compared with 2.

Read-outs that look alike come from different tables or passages of the source. Bounds are passed on as bounds.

Usually MIC stands for the lowest concentration that inhibits growth of the organism. For orientation: IC50 means the point on the concentration scale where inhibition reaches its midpoint. Read a low IC50 as higher potency.

S. aureus DNA gyrase, sequence (P20831 whole entry): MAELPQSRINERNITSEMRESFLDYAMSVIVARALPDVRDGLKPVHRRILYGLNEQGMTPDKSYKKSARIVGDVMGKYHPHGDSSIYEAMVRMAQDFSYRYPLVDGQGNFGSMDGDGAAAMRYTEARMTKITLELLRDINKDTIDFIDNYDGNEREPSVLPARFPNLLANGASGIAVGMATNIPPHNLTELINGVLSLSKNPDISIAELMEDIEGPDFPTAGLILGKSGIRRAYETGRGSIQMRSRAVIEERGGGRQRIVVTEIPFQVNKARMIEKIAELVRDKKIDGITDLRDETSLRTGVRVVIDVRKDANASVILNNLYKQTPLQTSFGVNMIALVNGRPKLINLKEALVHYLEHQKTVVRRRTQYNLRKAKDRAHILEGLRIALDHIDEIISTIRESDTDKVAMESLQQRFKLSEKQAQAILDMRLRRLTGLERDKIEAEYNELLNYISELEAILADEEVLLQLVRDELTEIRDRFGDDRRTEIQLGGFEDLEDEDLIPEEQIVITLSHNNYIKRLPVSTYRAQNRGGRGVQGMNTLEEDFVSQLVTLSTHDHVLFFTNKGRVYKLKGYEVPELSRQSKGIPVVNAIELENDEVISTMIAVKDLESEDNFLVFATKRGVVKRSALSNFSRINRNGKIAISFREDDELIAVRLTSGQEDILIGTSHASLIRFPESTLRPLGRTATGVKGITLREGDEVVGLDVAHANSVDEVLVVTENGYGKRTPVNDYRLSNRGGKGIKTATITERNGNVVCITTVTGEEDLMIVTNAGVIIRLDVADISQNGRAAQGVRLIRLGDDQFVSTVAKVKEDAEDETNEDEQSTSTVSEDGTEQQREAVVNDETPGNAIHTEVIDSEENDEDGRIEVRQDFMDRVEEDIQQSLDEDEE
S. aureus DNA gyrase, sequence (P0A0K8 whole entry): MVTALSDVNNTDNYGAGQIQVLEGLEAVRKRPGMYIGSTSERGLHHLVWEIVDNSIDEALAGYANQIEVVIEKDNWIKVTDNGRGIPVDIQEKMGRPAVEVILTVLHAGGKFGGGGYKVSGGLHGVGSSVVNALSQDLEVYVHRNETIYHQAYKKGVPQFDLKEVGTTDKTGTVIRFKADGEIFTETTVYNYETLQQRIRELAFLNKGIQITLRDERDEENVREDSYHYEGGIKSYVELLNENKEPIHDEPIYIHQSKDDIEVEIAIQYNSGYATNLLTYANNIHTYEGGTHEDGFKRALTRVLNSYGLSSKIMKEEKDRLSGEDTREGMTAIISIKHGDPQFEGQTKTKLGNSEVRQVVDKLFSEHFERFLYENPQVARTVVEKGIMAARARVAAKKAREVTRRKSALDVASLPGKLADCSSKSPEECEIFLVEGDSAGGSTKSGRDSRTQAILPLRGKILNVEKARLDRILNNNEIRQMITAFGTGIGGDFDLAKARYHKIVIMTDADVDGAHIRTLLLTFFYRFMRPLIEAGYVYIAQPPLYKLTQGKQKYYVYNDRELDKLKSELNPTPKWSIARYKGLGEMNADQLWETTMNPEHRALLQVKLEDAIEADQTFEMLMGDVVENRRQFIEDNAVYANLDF

Regarding 2-hexadecynoic acid [compound 4], the MIC is 31.3 µg/mL in the data set with Bacillus cereus; >1,000 μg/mL against E. coli (ATCC 25922); 15.6 µg/mL with MRSA (ATCC 43300) [1]; 7.8 µg/mL with CIMRSA 1; 7.8 µg/mL with CIMRSA 5; 7.8 µg/mL in the data set on CIMRSA 2. Also, the MIC in [2] is 15.6 µg/mL; with CIMRSA 7 it was 7.8 µg/mL; in the data set on CIMRSA 3 it was 15.6 µg/mL; in the data set on Pseudomonas aeruginosa it was 125 µg/mL; in data set [3], 3.9 µg/mL; with CIMRSA 4, 15.6 µg/mL. Further, the MIC in the data set with CIMRSA 6, against MRSA (ATCC 43300) [5] and in the data set with Klebsiella pneumoniae was 7.8 µg/mL throughout. In addition, the “IC50 ± SEM” value is 4.2 ± 0.1 µg/mL in the data set with CIMRSA 1; 5.1 ± 0.2 µg/mL with CIMRSA 5; 5.0 ± 0.5 µg/mL in the data set on CIMRSA 2; 4.7 ± 0.3 µg/mL in the data set on CIMRSA 7; 6.3 ± 0.2 µg/mL with CIMRSA 3; 6.5 ± 0.1 µg/mL in the data set with CIMRSA 4. Moreover, the “IC50 ± SEM” value in the data set with CIMRSA 6 came to 5.7 ± 0.8 µg/mL; in the data set with MRSA (ATCC 43300) [5], 5.1 ± 0.1 µg/mL. The “Vero cells cytotoxicity IC50±SEM” value in the data set on Vero cells came out at 1.6 ± 0.4 µg/mL. Besides, the “PBMC cytotoxicity IC50±SEM” value in data set [4] came to 68.9 ± 0.7 µg/mL. The “fold more active against DNA gyrase than 6” value on S. aureus DNA gyrase (4 compared with 6) amounted to 3.7 fold.
In turn, `CCCCCCCCCCCCCC#CC(=O)Oc1ccc(/C=C/C(=O)/C=C/c2ccc(OC(=O)C#CCCCCCCCCCCCCC)c(OC)c2)cc1OC` [compound 6, C5-Curcumin-2-Hexadecynoic Acid] showed a concentration for half-maximal inhibition (IC50) in [6] of more than 100 µg/mL. Besides, the “fold increase of antibacterial activity against MRSA strains relative to 2” value with eight MRSA strains is 4-8 fold.
In the case of `CCCCCCCCCCCCCCCC(=O)Oc1ccc(/C=C/C(=O)/C=C/c2ccc(OC(=O)CCCCCCCCCCCCCCC)c(OC)c2)cc1OC` [C5-Curc-PA, C5-Curcumin-Palmitic Acid], the “inhibition of S. aureus DNA gyrase (in words)” value against S. aureus DNA gyrase (ethidium bromide stained gels, Fig. 2) is “not inhibitory”.

The record behind these values is PMC4663078 (Bioorganic & medicinal chemistry letters, 2015).
